From a melting point compilation (Tetko et al.)

| melting point [°C] | SMILES |
| --- | --- |
| 116 to 118 | Cc1nc(-c2cccc(S(=O)(=O)Cl)c2)cs1 |
| 170 to 171 | O=C(Cc1cc(CC(=O)c2ccccc2)c([N+](=O)[O-])cc1[N+](=O)[O-])c1ccccc1 |
| 175 | N#C/C(=N/Nc1ccccc1)c1nc(-c2ccccc2)cs1 |
| 205 to 207 | CC(C)(C)c1cc(C(C)(C)C)n(-c2ccc(N)cc2)n1 |
| 109 to 110 | O=Cc1c(-c2ccccc2)nn(-c2ccccc2)c1Cl |
| 150 | CCOC(=O)c1cc2cc(F)ccc2[nH]1 |
| 66 | Cc1ccnc(Cl)c1N |
| 150 to 153 | CCSc1sc(C#N)c2c1C(=O)CC(C)(C)C2 |
| 104 | O=C(O)CCN1C(=O)C=CC1=O |
| 76 | Cc1cc(Br)cc(C)c1O |
| 139 | O=C1CCc2ccc(OCCCCN3CCN(c4cccc(Cl)c4Cl)CC3)cc2N1 |
| 186 | CC(C)(Oc1ccc(CCNC(=O)c2ccc(Cl)cc2)cc1)C(=O)O |
| 201 | NC1=C(Cl)C(=O)c2ccccc2C1=O |
| 277 to 283 | O=C(O)c1cnc2ccccc2c1 |
| 87 to 88 | COc1ccc(C(=O)Cc2ccccc2)cc1OC |
| 95.8 | O=[N+]([O-])c1cccc2cccc(Cl)c12 |
| 330 | O=c1c(O)c(-c2ccc(O)c(O)c2)oc2cc(O)ccc12 |
| 100 to 103 | OC[C@H]1O[C@H](CO)[C@@H](O)[C@@H]1O |
| 38.5 | Cc1cc(Br)cc(Cl)c1N |
| 219 | Clc1cc(Cl)c2oc3c(Cl)c(Cl)c(Cl)cc3c2c1 |
| 174 | CC(C)C1=CC2=CCC3C(C)(C(=O)O)CCCC3(C)C2CC1 (centres undefined) |
| 160 to 162 | NS(=O)(=O)c1cc([N+](=O)[O-])c(Cl)s1 |
| 272 to 274 | NC(CCCC(F)(F)F)C(=O)O (centres undefined) |

| melting point [°C] | SMILES |
| --- | --- |
| 177 to 179 | S=c1[nH]ccn1-c1ccccc1 |
| 142 to 143 | CCC1C2=C(OC(=O)C1(C)C)c1ccc(OC)cc1CC2 (centres undefined) |
| 125 | CC(C)(C)OC(=O)N[C@H]1CCCNC1 |
| 259 | Cc1cccc(/N=N/c2c(C)[nH]c(=S)c(C#N)c2C)c1C |
| 58 | N#Cc1c(F)cccc1Cl |
| 231 to 233 | CCN1C(=O)C(=Cc2coc3ccc(Cl)cc3c2=O)SC1=S |
| 27.4 | CCCCCCCCCCCCCN |
| 217 | O=C(O)C1c2ccccc2Oc2ccccc21 |
| 86 | O=Cc1cc(Cl)cc(Br)c1O |
| -27.5 | CCOc1cccc(F)c1 |
| 78 to 80 | COc1ccc([N+](=O)[O-])c(Cl)n1 |
| 121 | COc1cc(C(=O)NCCCCCC(=O)O)cc(OC)c1OC |
| 89 to 94 | N#Cc1cc(Cl)ccc1[N+](=O)[O-] |
| 152 | Cc1c(C)n2c(CBr)c(C)c(=O)n2c1=O |
| 58 to 60 | COc1cccc(O)c1C(C)=O |
| 29 | CCOC(=O)CCCCC(=O)O |
| 200 | O=[N+]([O-])c1cccc(-c2nnc3n2NCS3)c1 |
| 233 | O=C1C(c2ccccc2)=[N+]([O-])c2cc([N+](=O)[O-])c(/C=C/c3ccccc3)cc21 |
| 104 to 108 | O=Cc1cccc(NS(=O)(=O)c2ccccc2)c1 |
| 119 | CC1=NN(c2ccc([N+](=O)[O-])cc2)C(=O)C1[N+](=O)[O-] (centres undefined) |
| 177 | c1ccc2c(-c3nnc(-c4cccc5ccccc45)o3)cccc2c1 |
| -108 | CCC1CCC(C)C1 (centres undefined) |
| 214 | CC(=O)OC1(C(C)=O)CCC2C3C=C(C)C4=CC(=O)CCC4(C)C3CCC21C (centres undefined) |

| melting point [°C] | SMILES |
| --- | --- |
| 117 | Nc1ccc(C(=O)c2ccccc2)cc1N |
| 108 to 112 | Cc1nc(-c2ccc(C(=O)Cl)s2)cs1 |
| 116 to 119 | CC(=O)Nc1ccc(Br)c(C(F)(F)F)c1 |
| -85.5 | CCSC#N |
| 41 | Oc1ccc(F)c(Cl)c1 |
| 55 | Cn1cncc1C=O |
| 31 | CC(=O)OC1Cc2ccccc21 (centres undefined) |
| 95 to 96 | FC(F)(F)c1cccc(-c2noc(-c3cc(-c4ccccc4)c(C(F)(F)F)s3)n2)c1 |
| 280 | Cn1c(=O)c(C2=NNC(=O)C2=Cc2ccc(Cl)cc2Cl)c(O)c2ccccc21 |
| 211 | O=[N+]([O-])c1ccc(OC2OC(CO)C(O)C(O)C2O)cc1 (centres undefined) |
| 155 | CCC(Cc1c(I)cc(I)c(N)c1I)C(=O)O (centres undefined) |
| 150 to 154 | BrCc1nc2ccccc2nc1CBr |
| 145 to 146 | CCOC(=O)c1cc(I)c(N)c(I)c1 |
| 164 | CCc1cc(C(N)=S)ccn1 |
| 285 | Cn1c(/C(C#N)=N/Nc2cccc(O)c2)nc2ccccc21 |
| 137 to 138 | C[C@]12CCC(=O)C[C@@H]1CCC1=C2CC[C@@H]2C(=O)CC[C@H]12 |
| 147 to 149 | CCOC(=O)N=C(c1ccc[nH]1)N1CCOCC1 |
| 207 to 209 | O=C(O)c1ccc(O)cc1Cl |
| 104 | CCc1ccccc1NCN1C(=O)c2ccccc2C1=O |
| -23 | C[Si](C)(Oc1ccccc1)Oc1ccccc1 |
| 121 to 124 | O=C(Oc1c(F)c(F)c(F)c(F)c1F)c1cncnc1 |
| 189 to 190 | CCOC(=O)C1=C(C)OC(N)=C(C#N)C1c1ccccc1 (centres undefined) |
| 130 | COC(=O)c1cc(Cl)ccc1NC(C)=O |

| melting point [°C] | SMILES |
| --- | --- |
| -36 | C1CCC(OC2CCCCC2)CC1 |
| 295 | O=c1[nH]ccc(=S)[nH]1 |
| 185 | Nc1ccccc1-c1c(-c2ccccc2)noc1-c1ccccc1 |
| 167 | CCOC(=O)c1cc2c(=O)oc3ccccc3c2nc1C |
| 195 to 199 | Cc1nccc(O)c1OCc1ccc(Cl)cc1 |
| 133 to 134 | O=[N+]([O-])c1ccc(C(O)CNCc2ccccc2)cc1 (centres undefined) |
| 161 | CC(C)(C)c1cc(C(=O)O)cc(C(C)(C)C)c1 |
| 86 to 87 | COC(=O)c1scc(C)c1N |
| 37 | CCC(=O)c1ccc(C(F)(F)F)c(F)c1 |
| 42 | Cc1onc(-c2ccccc2Cl)c1C(=O)Cl |
| 56 to 58 | Clc1cc(Cl)c(I)c(Cl)c1 |
| 76 to 78 | COC(=O)c1scc(C)c1Cl |
| -17 | COc1cccc(O)c1 |
| 320 | NC(=O)C=Cc1ccc(C=CC(N)=O)cc1 |
| 201 | Brc1n[nH]c(Br)n1 |
| 52.5 | c1ccc(OCc2ccc(CCCN3CCOCC3)cc2)cc1 |
| 97 | Cc1cccc(NC(=O)C(F)(F)C(F)(F)C(F)(F)C(F)(F)C(F)(F)C(F)(F)C(F)(F)C(F)(F)F)c1 |
| 75 | O=C(C(=S)N1CCOCC1)c1ccccc1 |
| 213 to 214 | O=C(O)c1ccc2sccc2c1 |
| -73 | COC(CCl)OC |
| 162 | CCOc1ccc(N=Nc2ccc(OCC)cc2)cc1 |
| 161 | O=c1c(I)cn(CC(O)CO)cc1I (centres undefined) |
| 232 | NC(=S)NN=C1C(=O)Nc2ccccc21 |

| melting point [°C] | SMILES |
| --- | --- |
| 280 to 282 | Cc1ccc2[nH]cc(CC(N)C(=O)O)c2c1 (racemic) |
| 147 | CC(=O)c1cc(C(C)(C)C)c(O)c(C(C)(C)C)c1 |
| 158 | NS(=O)(=O)c1cc2c(s1)C(O)CCS2 (centres undefined) |
| 79 | N#Cc1cc(Br)ccc1F |
| 64 | N#Cc1ccc(F)cc1Cl |
| 71 | C=C(C)C(=O)OCCOC(=O)c1cc([N+](=O)[O-])cc([N+](=O)[O-])c1 |
| 46 | COc1ccc2c(c1)N(CCCN(C)C)c1ccccc1S2 |
| 134 to 135 | S=C(Nc1ccccc1)C(=S)Nc1ccccc1 |
| 144 | CCCCOc1ccc(-c2nnc3n2NC(c2ccc(O)c(OC)c2)S3)cc1 (centres undefined) |
| 211 | CCOc1ccc(C(NC(=O)c2ccccc2)NC(=O)c2ccccc2)cc1OC |
| 40 to 41 | O=Cc1ccc(-c2ccco2)s1 |
| 165 to 167 | O=C(NCCCCc1ccccc1)c1cc([N+](=O)[O-])cc([N+](=O)[O-])c1 |
| 218 to 220 | O=C(Nc1c(Cl)cc(Cl)cc1Cl)C(C(F)(F)F)C(F)(F)F |
| 226 | NC(=O)c1cncc(Br)c1 |
| 135 to 139 | Cc1cc(C(=O)O)c(C)o1 |
| 176 | N#C/C(=N\Nc1cc(Cl)c(Cl)cc1Cl)c1nc(-c2ccc(Cl)cc2)cs1 |
| 94 | O=C1CCc2cc(Cl)ccc21 |
| 219 | CC(C=CC=CC(C)=CC=CC(C)=CC=C1C(C)=CC(=O)CC1(C)C)=CC=CC(C)=CC=C1C(C)=CC(=O)CC1(C)C |
| 68 | Cc1cc(N(C)C)ccc1N=Nc1ccccc1 |
| 27 | COc1ccc(Cl)c(N)c1 |

| SMILES | melting point [°C] |
| --- | --- |
| CC1OC(=O)C2CC3CCCCC3C(C=CC3CCCC(C)N3C)C12 (single isomer, unassigned; (+)) | 130 to 136 |
| O=P(O)(O)Cc1ccccc1 | 169 |
| CCC(C)(S(=O)(=O)CC)S(=O)(=O)CC | 76 |
| CN1CCN(Cc2ccccc2N)CC1 | 87 to 88 |
| c1ccc(NNc2ccccc2)cc1 | 131 |
| C=CCN=C=S | -80 |
| Nc1ccc(N)cc1 | 146 |
| CC12CCC(O)CC1=CCC1C2CCC2(C)C1CCC2(C)O (centres undefined) | 206 |
| CC(C)(c1cc(Cl)c(O)c(Cl)c1)c1cc(Cl)c(O)c(Cl)c1 | 135 |
| BrCc1ccccc1I | 56 |
| CNC(=O)Oc1ccc(N(C)C)c(C)c1 | 93.9 |
| O=CC(Br)=C(Br)C(=O)O | 123 |
| CCC1CC2CC3c4[nH]c5cc(OC)ccc5c4CCN(C2)C13 (centres undefined) | 214 |
| CCCCCC(=O)Cl | -87 |
| Clc1ccc(Oc2ccccc2)cc1 | -8 |
| O=CC(Br)(Br)Br | -57.5 |
| Nc1c([N+](=O)[O-])ccc(Oc2ccccc2)c1Cl | 81.5 |
